Paper PMC3549253, “Effect of repetitive lysine–tryptophan motifs on the bactericidal activity of antimicrobial peptides” (Amino Acids, 2012)
Where two headings read alike, the source gives them in different places. Residues, ends and D or L forms follow the SMILES beside them. No end group written: not given here.

Key:
[1] = system: S. typhimurium CCARM 8007; assay: microbe, parasite or virus in culture; type: cell-based, Salmonella typhimurium
Excerpt: (§1) Escherichia coli (KCTC 1682), Salmonella typhimurium (KCTC 1926), Pseudomonas aeruginosa (KCTC 1637), Staphylococcus aureus (KCTC 1621), Bacillus subtilis (KCTC 1918), and Listeria monocytogenes (KCTC 3710) were obtained from the Korean Collection for Type Cultures (KCTC). Drug-resistant E. coli strains (CCARM 1229 and CCARM 1238), S. typhimurium strains (CCARM 8007, CCARM 8009, and CCARM 8013), and S. aureus strains (CCARM 3089, CCARM 3090, CCARM 3108, CCARM 3114, and CCARM 3126) were from the Culture Collection of Antibiotic-Resistant Microbes (CCARM) at Seoul Women’s University, Korea.
(§2) The antibacterial activities of the peptides against Gram-negative, Gram-positive and antibiotic-resistant bacterial strains were evaluated using the microbroth dilution method (Park et al. [2003]). Aliquots of culture medium containing bacterial suspensions in mid-logarithmic phase at a concentration of 2 × 10^5 colony forming units (CFU)/ml were added to each well of a multiwell plate containing peptide solution serially diluted 2× in 10 mM sodium phosphate buffer (pH 7.2) or phosphate-buffered saline (PBS, 1.5 mM KH2PO4, 2.7 mM KCl, 8.1 mM Na2HPO4, 150 mM NaCl, pH 7.2). Growth inhibition was evaluated by measuring the absorbance at 620 nm using a Versa-Max microplate Elisa Reader (Molecular Devices Co., Sunnyvale, CA, USA) after 24 h of incubation at 37° C. […] All MIC measurements were the average of 3–4 independent experiments.

[2] = system: Salmonella typhimurium (KCTC 1926); assay: microbe, parasite or virus in culture; type: cell-based; settings: pH 7.2
Excerpt: as §1, §2

human red blood cells = assay: Human red blood cell (hRBC) hemolysis; type: cell-based; settings: for Hemolysis: 200 μM peptide in PBS pH 7.2, 4 % v/v hRBCs, 60 min at 37° C, absorbance 414 nm, 100 % = 0.1 % Triton X-100, triplicate; for MHC (minimal hemolytic concentration): minimal peptide concentration that produces 10 % hemolysis, hRBCs in PBS
Protocol: Hemolytic activities of the peptides were assessed using heparinized hRBCs collected from healthy donors. Fresh hRBCs were washed three times by centrifugation at 800×g for 10 min in PBS (pH 7.2) and then resuspended in PBS. The peptides were then dissolved in PBS and added to 100 μl of stock hRBCs suspended in PBS (final RBC concentration, 4 % v/v), after which the samples were incubated with gentle agitation for 60 min at 37° C before centrifugation for 10 min at 800×g. Absorbance of the supernatants was recorded at 414 nm. In addition, control samples for zero hemolysis and 100 % hemolysis were incubated with PBS (A blank) or 0.1 % Triton X-100 (A triton), respectively. Melittin was used as a reference hemolytic peptide. Percent hemolysis was calculated according to the following equation: Each measurement was conducted in triplicate (Kim et al. [2011]).

S. aureus CCARM 3126 = assay: microbe, parasite or virus in culture
Excerpt: as §1
The antibacterial activities of the peptides against Gram-negative, Gram-positive and antibiotic-resistant bacterial strains were evaluated using the microbroth dilution method (Park et al. [2003]). Aliquots of culture medium containing bacterial suspensions in mid-logarithmic phase at a concentration of 2 × 10^5 colony forming units (CFU)/ml were added to each well of a multiwell plate containing peptide solution serially diluted 2× in 10 mM sodium phosphate buffer (pH 7.2) or phosphate-buffered saline (PBS, 1.5 mM KH2PO4, 2.7 mM KCl, 8.1 mM Na2HPO4, 150 mM NaCl, pH 7.2). Growth inhibition was evaluated by measuring the absorbance at 620 nm using a Versa-Max microplate Elisa Reader (Molecular Devices Co., Sunnyvale, CA, USA) after 24 h of incubation at 37° C.

[3] = system: Listeria monocytogenes (KCTC 3710); type: cell-based; settings: KCTC 3710, 24 h, pH 7.2
Excerpt: as §1, §2

[4] = system: Pseudomonas aeruginosa (KCTC 1637); type: cell-based; settings: KCTC 1637, 24 h, pH 7.2
Excerpt: as §1, §2

E. coli CCARM 1238 = assay: microbe, parasite or virus in culture; type: cell-based, Escherichia coli
Excerpt: as §1, §2

S. aureus CCARM 3114 = assay: microbe, parasite or virus in culture; type: cell-based, Staphylococcus aureus
Excerpt: as §1, §2

S. aureus CCARM 3108 = assay: microbe, parasite or virus in culture; type: cell-based, Staphylococcus aureus
Excerpt: as §1, §2

S. aureus CCARM 3089 = assay: microbe, parasite or virus in culture; type: cell-based, Staphylococcus aureus
Excerpt: as §1, §2

S. aureus CCARM 3090 = assay: microbe, parasite or virus in culture; type: cell-based, Staphylococcus aureus
Excerpt: as §1, §2

[5] = system: S. typhimurium CCARM 8013; assay: microbe, parasite or virus in culture; type: cell-based, Salmonella typhimurium
Excerpt: as §1, §2

[6] = system: S. typhimurium CCARM 8009; assay: microbe, parasite or virus in culture; type: cell-based, Salmonella typhimurium
Excerpt: as §1, §2

[7] = system: Escherichia coli (KCTC 1682); assay: microbe, parasite or virus in culture; type: cell-based; settings: pH 7.2
Excerpt: as §1, §2

[8] = system: Staphylococcus aureus (KCTC 1621); assay: microbe, parasite or virus in culture; type: cell-based; settings: pH 7.2
Excerpt: as §1, §2

[9] = system: Bacillus subtilis (KCTC 1918); type: cell-based; settings: KCTC 1918, 24 h, pH 7.2
Excerpt: as §1, §2

E. coli CCARM 1229 = assay: microbe, parasite or virus in culture; type: cell-based, Escherichia coli
Excerpt: as §1, §2

[10] = drug-resistant strain, 10 mM sodium phosphate buffer, pH 7.2, 2 × 10^5 CFU/ml, 24 h at 37° C, average of 3–4 independent experiments
[11] = drug-resistant strain, PBS, pH 7.2 (number in parentheses), 2 × 10^5 CFU/ml, 24 h at 37° C, average of 3–4 independent experiments
[12] = drug-resistant strain, 10 mM sodium phosphate buffer, pH 7.2, 2 × 10^5 CFU/ml, 24 h at 37° C, average of 3–4 independent experiments, read-out: MIC
[13] = Salmonella enterica, drug-resistant strain, 10 mM sodium phosphate buffer, pH 7.2, 2 × 10^5 CFU/ml, 24 h at 37° C, average of 3–4 independent experiments, read-out: MIC

KWKWKWKW-NH2 [(KW)4, KWKWKWKW-NH2]
8%: Hemolysis (human red blood cells)
210 µM: MHC (minimal hemolytic concentration) (human red blood cells)
1.56 (1.56) μM: MIC ([2]; KCTC 1926, 24 h)
3.12 (3.12) μM: MIC [3] | MIC [4]
12.5 (12.5) μM: MIC [1, 10] | MIC [1, 11] | MIC (S. aureus CCARM 3126; [10]) | MIC (S. aureus CCARM 3126; [11]) | MIC (E. coli CCARM 1238; [10]) | MIC (E. coli CCARM 1238; [11]) | MIC (S. aureus CCARM 3114; [10]) | MIC (S. aureus CCARM 3114; [11]) | MIC (S. aureus CCARM 3108; [10]) | MIC (S. aureus CCARM 3108; [11]) | MIC (S. aureus CCARM 3089; [10]) | MIC (S. aureus CCARM 3089; [11]) | MIC (S. aureus CCARM 3090; [10]) | MIC (S. aureus CCARM 3090; [11])

NCCCC[C@H](NC(=O)[C@H](Cc1c[nH]c2ccccc12)NC(=O)[C@@H](N)CCCCN)C(=O)N[C@@H](Cc1c[nH]c2ccccc12)C(N)=O [(KW)2, KWKW-NH2] (H-KWKW-NH2)
>200 (>200) μM: MIC ([1]; CCARM 8007, 24 h, pH 7.2) | MIC ([5]; CCARM 8013, 24 h, pH 7.2) | MIC ([6]; CCARM 8009, 24 h, pH 7.2) | MIC ([7]; KCTC 1682, 24 h) | MIC ([8]; KCTC 1621, 24 h) | MIC [9] | MIC [4] | MIC (E. coli CCARM 1229; CCARM 1229, 24 h, pH 7.2) | MIC (E. coli CCARM 1238; CCARM 1238, 24 h, pH 7.2) | MIC (S. aureus CCARM 3114; CCARM 3114, 24 h, pH 7.2) | MIC (S. aureus CCARM 3108; CCARM 3108, 24 h, pH 7.2) | MIC (S. aureus CCARM 3089; CCARM 3089, 24 h, pH 7.2) | MIC (S. aureus CCARM 3090; CCARM 3090, 24 h, pH 7.2)
550 µM: MHC (minimal hemolytic concentration) (human red blood cells)
200 (>200) μM: MIC [3]

KWKWKWKWKW-NH2 [(KW)5, KWKWKWKWKW-NH2]
50 µM: MHC (minimal hemolytic concentration) (human red blood cells)
12.5 (12.5) μM: MIC [9]
25 µM: MIC [1, 12] | MIC [5, 12] | MIC [6, 12] | MIC ([8]; KCTC 1621, 24 h, read-out: MIC) | MIC (S. aureus CCARM 3126; [10]) | MIC (S. aureus CCARM 3114; [12]) | MIC (S. aureus CCARM 3090; [12])
3.12 (3.12) μM: MIC [3]
71%: Hemolysis (human red blood cells)

CC1(C)S[C@@H]2[C@H](NC(=O)[C@H](N)c3ccccc3)C(=O)N2[C@H]1C(=O)O [Ampicillin, reference compound]
>200 (>200) μM: MIC [1, 11] | MIC [5, 11] | MIC [6, 11] | MIC (E. coli CCARM 1229; [11]) | MIC (E. coli CCARM 1238; [11])
50 µM: MIC ([7]; Escherichia coli, KCTC1682, 24 h)
> 200 µM: MIC [1, 13] | MIC [5, 13] | MIC [6, 13] | MIC (E. coli CCARM 1229; Escherichia coli, CCARM1229, drug-resistant strain, 10 mM sodium phosphate buffer, pH 7.2, 2 × 10^5 CFU/ml, 24 h at 37° C, average of 3–4 independent experiments, read-out: MIC) | MIC (E. coli CCARM 1238; Escherichia coli, CCARM1238, drug-resistant strain, 10 mM sodium phosphate buffer, pH 7.2, 2 × 10^5 CFU/ml, 24 h at 37° C, average of 3–4 independent experiments, read-out: MIC)
25 µM: MIC ([2]; Salmonella enterica, 10 mM sodium phosphate buffer, 2 × 10^5 CFU/ml, 24 h at 37° C, average of 3–4 independent experiments, read-out: MIC)

Cc1onc(-c2ccccc2)c1C(=O)N[C@@H]1C(=O)N2[C@@H]1SC(C)(C)[C@@H]2C(=O)O [Oxacillin, reference compound]
> 200 µM: MIC (S. aureus CCARM 3126; Staphylococcus aureus, CCARM3126, 24 h, pH 7.2) | MIC (S. aureus CCARM 3114; Staphylococcus aureus, CCARM3114, drug-resistant strain, 10 mM sodium phosphate buffer, pH 7.2, 2 × 10^5 CFU/ml, 24 h at 37° C, average of 3–4 independent experiments, read-out: MIC) | MIC (S. aureus CCARM 3108; Staphylococcus aureus, CCARM3108, drug-resistant strain, 10 mM sodium phosphate buffer, pH 7.2, 2 × 10^5 CFU/ml, 24 h at 37° C, average of 3–4 independent experiments, read-out: MIC) | MIC (S. aureus CCARM 3089; Staphylococcus aureus, CCARM3089, drug-resistant strain, 10 mM sodium phosphate buffer, pH 7.2, 2 × 10^5 CFU/ml, 24 h at 37° C, average of 3–4 independent experiments, read-out: MIC) | MIC (S. aureus CCARM 3090; Staphylococcus aureus, CCARM3090, drug-resistant strain, 10 mM sodium phosphate buffer, pH 7.2, 2 × 10^5 CFU/ml, 24 h at 37° C, average of 3–4 independent experiments, read-out: MIC)
12.5 µM: MIC ([8]; Staphylococcus aureus, KCTC1621, 10 mM sodium phosphate buffer, 2 × 10^5 CFU/ml, 24 h at 37° C, average of 3–4 independent experiments, read-out: MIC)
>200 (>200) μM: MIC (S. aureus CCARM 3126; [11]) | MIC (S. aureus CCARM 3114; [11]) | MIC (S. aureus CCARM 3108; [11]) | MIC (S. aureus CCARM 3089; [11]) | MIC (S. aureus CCARM 3090; [11])

KWKWKW-NH2 [(KW)3, KWKWKW-NH2]
200 µM: MIC (S. aureus CCARM 3126; [11])
50 µM: MIC (S. aureus CCARM 3126; [10])
350 µM: MHC (minimal hemolytic concentration) (human red blood cells)
